Measurements as given in patent US20130287807A1, “COMPOUNDS FOR TREATING SYMPTOMS ASSOCIATED WITH PARKINSON'S DISEASE” (priority 2008, published 2013).
“Also recorded” adds a separate entry of the source.

Legend:
[1] = tested on: monoclonal antibody (DAEFRH-peptide-specific); assay: Inhibition assay (ELISA): mimotope peptides compete with plate-bound original epitope DAEFRH for recognition by the monoclonal antibody; assay type: binding, Mice; conditions: for Inhibitory capacity of mimotopes: summary Tables 1 and 2 (Examples 2, 3); for inhibition of binding of the monoclonal antibody to the original epitope: text to FIGS. 2-9
Source text: Mice are vaccinated with the 6mer peptide DAEFRH (natural N-terminal Aβ42 sequence) linked to the protein bovine serum albumin BSA (to make use of the hapten-carrier-effect), emulsified in CFA (first injection) and IFA (booster injections). DAEFRH-peptide-specific, antibody-producing hybridomas are detected by ELISA (DAEFRH-peptide-coated ELISA plates).
FIGS. 2 and 3 describe the results of inhibition assays performed with mimotope peptides included in and obtained from the 5 libraries (as described in WO 2004/062556). The mimotope peptides compete with the original epitope for recognition by the monoclonal antibody. Original epitope and mimotope peptides contain an additional C at the C-terminus for coupling to a protein carrier (if desired).
(§1) After blocking with PBS/BSA 1% (200 μl/well, 12 h, 4° C.), the plates are washed 3× times with PBS/Tween. Then, biotinylated monoclonal antibody (1:2000, 50 μl/well) and peptides (50 μl/well) at 50, 5, 0.5, 0.05, 0.005, and 0.0005 μg/ml are added for 20 min. at 37° C. The plates are washed 3× times with PBS/Tween and are incubated with horseradish peroxidase (HRP)-labeled streptavidin (100 μl/well, 30 min, RT). The plates are washed 5× times with PBS/Tween and are incubated with ABTS+H2O2(0.1% w/v, 10 to 45 min) and the reaction is stopped with citric acid followed by photometric evaluation (wavelength 405 nm).
as §1, with “different concentrations” for “50, 5, 0.5, 0.05, 0.005, and 0.0005 μg/ml”, “ABTS+H2O2 (0.1%” for “ABTS+H2O2(0.1%”
as §1, with “different concentrations” for “50, 5, 0.5, 0.05, 0.005, and 0.0005 μg/ml”

[2] = tested on: full length Aβ and/or fragments thereof; assay: Immune response elicited by using AD mimotopes: detection of Aβ; assay type: in vivo; parameters: key: +: All peptides listed in table 1 mount specific immune reactions against full length Aβ and/or fragments thereof
Source text: In the following Table further examples of the immune response elicited by using AD mimotopes are described. All peptides listed in table 1 mount specific immune reactions against full length Aβ and/or fragments thereof.

[3] = tested on: monoclonal antibody MV-003; assay: In vitro binding assay (ELISA), BSA-coupled peptides, parental antibody MV-003; parameters: species or system BalbC mice; conditions: Table 1A; peptide-BSA on plate, compared to original epitope
Protocol: Peptides derived from Phage Display as well as variants thereof were coupled to BSA and bound to ELISA plates (1 μM; as indicated in the respective figures) and subsequently incubated with the monoclonal antibody that was used for the screening procedure to analyse binding capacity of identified peptides.
Legend to Table 1A: the binding capacity is coded by the following binding code: 1:X describes the dilution factor of the parental AB.

[4] = tested on: monoclonal antibody MV-003; assay: In vitro inhibition assay (ELISA), MV-003 binding to original epitope; parameters: species or system BalbC mice; conditions: Table 2A; OD at 10 ug peptide compared to original peptide
Protocol: Different amounts of peptides (concentrations ranging from 10 μg to 0.08 μg; serial dilutions; for MV-002: concentrations ranging from 5 μg to 0.03 μg; serial dilutions), derived from Phage Display were incubated with the monoclonal antibody that was used for the screening procedure. Peptides diminishing subsequent binding of the antibody to the original epitope coated on ELISA plates were considered as inhibiting in this assay.
Legend to Table 2A: the inhibition capacity is coded by the following code: Weak inhibition means more peptide is required to lower AB binding than with the original epitope; strong inhibition means similar peptide amounts are required for mimotope and original epitope for lowering AB binding. Mimotopes are compared to the original peptide as standard. OD at 10 ug peptide used in the assay is used to calculate the competition capacity compared to original peptide.

[5] = tested on: Aβ/truncated/modified forms; assay: In vivo characterisation of mimotopes: detection of Aβ/truncated/modified forms; parameters: species or system C57/B16 mice; key: +: All peptides listed in table 4 mount specific immune reactions against full length and/or truncated and modified forms of Aβ or fragments thereof; conditions: Table 4, MV-002 derived mimotopes
Protocol: (§2) Inhibiting as well as non-inhibiting peptides were coupled to KLH and injected into mice (wildtype C57/B16 mice; subcutaneous injection into the flank) together with an appropriate adjuvant (aluminium hydroxide). Animals were vaccinated 3-6 times in biweekly intervals and sera were taken biweekly as well. Titers to injected peptides, as well as to an irrelevant peptide were determined with every serum. Furthermore, titers against the recombinant human Aβ protein, and against original peptides were determined respectively. In general sera were analysed by reaction against peptides coupled to Bovine Serum Albumin (BSA) and recombinant full length proteins which were immobilised on ELISA plates. Titers were determined using anti mouse IgG specific antibodies. For detailed results see FIGS. 15, 16 and 17 respectively and FIGS. 23, 24 and 25 respectively.
(§3) Female C57/b16 mice, 5-6 mice per group, were subcutaneously immunized with 30 μg peptide coupled to KLH. Control groups were administered original epitope-KLH conjugates respectively. As adjuvant alum was used (always 1 mg per mouse). […] The in vitro ELISA assay to determine the antibody titer was performed with sera of single mice after each vaccination in a two week interval (see FIGS. 15 and 16 respectively). The wells of the ELISA plate were coated with mimotope-BSA conjugate and an irrelevant peptide-BSA conjugate (negative control). The positive control was performed by reaction of the parental antibody with the respective mimotope-BSA conjugate. The detection was performed with anti-mouse IgG. Additionally, recombinant proteins were immobilised on ELISA plates and sera reacted accordingly. FIGS. 15 to 17 show representative examples for assays used to characterise mimotopes in vivo.
as §3, with “FIGS. 25” for “FIGS. 15”, “and 26” for “and 16”, “respectively). Titers were calculated as OD max/2 in all figures shown.” for “respectively).”, “FIGS. 23, 24 and 25” for “FIGS. 15 to 17”

[6] = tested on: monoclonal antibody MV-002; assay: In vitro binding assay (ELISA), BSA-coupled peptides, parental antibody MV-002; parameters: species or system C57/B16 mice; conditions: Table 1 (MV-002); peptide-BSA on plate, compared to original epitope
Procedure, shortened: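 BSA-conjugated phage-display peptides and variants coated on ELISA plates at 1 μM, then incubated with the monoclonal antibody used for the screen. Binding capacity given as 1:X, the dilution factor of the parental antibody; Ac- marks acetylated amino acids.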

p4377 = assay: Mimotope vaccination, serum ELISA against p4377; assay type: in vivo, C57/B16 mice; conditions: peptide-KLH vaccines with alum; FIG. 24
Protocol: as §2
as §3, with “FIGS. 25” for “FIGS. 15”, “and 26” for “and 16”, “respectively). Titers were calculated as OD max/2 in all figures shown.” for “respectively).”, “FIGS. 23, 24 and 25” for “FIGS. 15 to 17”

[7] = tested on: monoclonal antibody MV-002; assay: In vitro inhibition assay (ELISA), MV-002 binding to original epitope; parameters: species or system C57/B16 mice; conditions: for inhibition of binding of monoclonal antibody in in vitro competition experiments: MV-002 mimotopes
[8] = tested on: injected peptide (mimotope-BSA conjugate); assay: Mimotope vaccination, serum titer ELISA against injected peptide; assay type: in vivo, C57/B16 mice; conditions: 30 μg peptide-KLH s.c. with alum, anti-mouse IgG
Protocol: as §2, §3
as §3, with “FIGS. 25” for “FIGS. 15”, “and 26” for “and 16”, “respectively). Titers were calculated as OD max/2 in all figures shown.” for “respectively).”, “FIGS. 23, 24 and 25” for “FIGS. 15 to 17”

irrelevant peptide p1454 = assay: Mimotope vaccination, serum titer ELISA against irrelevant peptide; assay type: in vivo, C57/B16 mice; conditions: 30 μg peptide-KLH s.c. with alum
Protocol: as §2, §3
as §3, with “FIGS. 25” for “FIGS. 15”, “and 26” for “and 16”, “respectively). Titers were calculated as OD max/2 in all figures shown.” for “respectively).”, “FIGS. 23, 24 and 25” for “FIGS. 15 to 17”

[9] = molecular target: monoclonal antibody MV-003; assay: inhibition ELISA, competitor coated original epitope p4373; code 1 = weaker than original epitope
[10] = competition ELISA, plate-bound DAEFRH-C-BSA

Molecule: CC(C)C[C@H](NC(=O)[C@@H](N)CCC(=O)O)C(=O)N[C@@H](CCC(=O)O)C(=O)N[C@@H](Cc1ccccc1)C(=O)N[C@@H](CCCNC(=N)N)C(=O)NCC(=O)N[C@@H](CS)C(=O)O [Peptide 3008, ELEFRG]
- Inhibitory capacity of mimotopes [1]: weak
- Detection of Aβ [2]: +

Molecule: GREFRN (GREFRNC) [Peptide 4003]
- inhibition of binding of the monoclonal antibody to the original epitope [1, 10]: block epitope recognition; also recorded: only inhibitory at a relatively high concentration (10 μg/ml)
- Inhibitory capacity of mimotopes [1]: weak
- Detection of Aβ [2]: +

Molecule: IRWDGC [p4792]
- Binding Capacity [3]: 1 (weak binding :<16000)
- Inhibition Capacity [4]: 1 (Weaker than original epitope (OD of 10 ug peptide below 12 times of original peptide))

Molecule: IRWDGGC [p4793]
- Binding Capacity [3]: 2 (medium binding :16-60000)
- Inhibition Capacity [4]: 1 (Weaker than original epitope (OD of 10 ug peptide below 12 times of original peptide))

Molecule: C[C@H](NC(=O)[C@@H](N)Cc1ccc(O)cc1)C(=O)N[C@@H](CCC(=O)O)C(=O)N[C@@H](Cc1ccccc1)C(=O)N[C@@H](CCCNC(=N)N)C(=O)NCC(=O)N[C@@H](CS)C(=O)O [Peptide 3005, YAEFRG]
- inhibition of binding of the monoclonal antibody to the original epitope [1, 10]: block epitope recognition
- Inhibitory capacity of mimotopes [1]: intermediate
- Detection of Aβ [2]: +

Molecule: N=C(N)NCCC[C@H](NC(=O)[C@H](Cc1ccccc1)NC(=O)[C@H](CCC(=O)O)NC(=O)[C@H](Cc1ccc(O)cc1)NC(=O)[C@@H](N)CC(=O)O)C(=O)NCC(=O)N[C@@H](CS)C(=O)O [Peptide 3007, DYEFRG]
- inhibition of binding of the monoclonal antibody to the original epitope [1, 10]: block epitope recognition
- Inhibitory capacity of mimotopes [1]: strong
- Detection of Aβ [2]: +

Molecule: N=C(N)NCCC[C@H](NC(=O)[C@H](Cc1ccccc1)NC(=O)[C@H](CCC(=O)O)NC(=O)[C@H](Cc1ccc(O)cc1)NC(=O)[C@@H](N)CCC(=O)O)C(=O)NCC(=O)N[C@@H](CS)C(=O)O [Peptide 1239, EYEFRG]
- IC50 (inhibition of monoclonal antibody recognition of DAEFRH) ([1]; competition ELISA, plate-bound DAEFRH-C-BSA, biotinylated mAb 1:2000): more than 0.5 μg/ml
- inhibition of binding of the monoclonal antibody to the original epitope [1, 10]: block epitope recognition
- Inhibitory capacity of mimotopes [1]: intermediate
- Detection of Aβ [2]: +

Molecule: IRWDQPC [p4756]
- Binding Capacity [3]: 3 (strong binding :>60000)
- Inhibition Capacity [4]: 1 (Weaker than original epitope (OD of 10 ug peptide below 12 times of original peptide))

Molecule: C[C@H](NC(=O)[C@@H](N)CCC(=O)O)C(=O)N[C@@H](CCC(=O)O)C(=O)N[C@@H](Cc1ccccc1)C(=O)N[C@@H](CCCNC(=N)N)C(=O)NCC(=O)N[C@@H](CS)C(=O)O [Peptide 3006, EAEFRG]
- inhibition of binding of the monoclonal antibody to the original epitope [1, 10]: block epitope recognition
- Inhibitory capacity of mimotopes [1]: strong
- Detection of Aβ [2]: +

Molecule: SHTRLYFC [p4403]
- Detection of Aβ/truncated/modified forms [5]: +
- Binding Capacity [6]: 1 (weak binding :<40000)
- immune response against original epitope p4377 (p4377): mounted detectable immune responses
- inhibition of binding of monoclonal antibody in in vitro competition experiments [7]: without inhibition capacity
- immune response against injected peptide [8]: elicited immune responses
- immune response against unrelated sequence (p1454) (irrelevant peptide p1454): failed to induce a relevant unspecific immune response

Molecule: IRWDTSLC [p4728]
- Binding Capacity [3]: 3 (strong binding :>60000)
- Inhibition Capacity [4]: 2 (strong inhibition (as original epitope; OD of 10 ug peptide below 5 times of original peptide))

Molecule: HMRLFFNC [p4670]
- Detection of Aβ/truncated/modified forms [5]: +
- Binding Capacity [6]: 3 (strong binding :>320000)
- immune response against original epitope p4377 (p4377): mounted detectable immune responses
- inhibition of binding of monoclonal antibody in in vitro competition experiments [7]: active in in vitro inhibition assays
- Inhibition Capacity ([7]; Table 2 (MV-002), OD at 5 ug peptide compared to original peptide): 1 (Weaker than original epitope (OD of peptide below 4, 6 times of original peptide))
- immune response against injected peptide [8]: elicited immune responses
- immune response against unrelated sequence (p1454) (irrelevant peptide p1454): failed to induce a relevant unspecific immune response

Molecule: IRWDGGC [p4793]
- OD at 10 ug peptide relative to OD of original peptide (inhibition ELISA) [9]: 5 to 12 fold

Molecule: IRWDTPC [p4395]
- OD at 10 ug peptide relative to OD of original peptide (inhibition ELISA) [9]: 5 to 12 fold
